From publication PMC12281424, “A Rac-specific competitive inhibitor of guanine nucleotide binding reduces metastasis in triple-negative breast cancer” (Cell Reports Medicine, 2025)
Several values for one entry are separate records, joined by “and”; a condition that tells them apart may be missing. Equal values may be shown once.

Experiments:
TA98 = assay: Bacterial cytotoxicity; format: cell-based
Source text: Data S2. Bacterial cytotoxicity of A41.
Test Concentration %Effect Cytotoxicity (% of control)

[1] = Ames fluctuation test (1st group); format: cell-based
Source text: Data S3. Ames-fluctuation assay-A41.
Test Concentration Count Positive Significance Fisher Exact Test
(# of wells) (- to +++) (p-value)
Ames fluctuation test (TA100 + S9

Adenosine A1 = Adenosine A1 (Homo sapiens, UniProt P30542); assay: Safety screen; format: binding
Experimental: (§1) The kinase profiler was performed by the company Eurofins (Discovery, Panlab and Cerep).

Androgen (Testosterone) = Androgen (Testosterone) (Homo sapiens, UniProt P10275); assay: Safety screen; format: binding
Experimental: (§2) Blood cell counts, kinase profiler, safety screen, bacterial cytotoxicity, Ames, micronucleus assays were performed by the company Eurofins (France). The kinase profiler was performed by the company Eurofins (Discovery, Panlab and Cerep).

Estrogen ERα = Estrogen ERα (Homo sapiens, UniProt P03372); assay: Safety screen; format: binding
Experimental: (§3) Blood cell counts, kinase profiler, safety screen, bacterial cytotoxicity, Ames, micronucleus assays were performed by the company Eurofins (France).

[2] = biological target: Transporter, Serotonin (5- Hydroxytryptamine) (SERT) (Homo sapiens, UniProt P31645); assay: Safety screen; format: binding
Experimental: as §3

Abl(Y253F)(h) = Abl(Y253F)(h) (Homo sapiens, UniProt P00519, Y253F); assay: Kinase Profiler; format: biochemical
Experimental: as §1

Cdc7/cyclinB1(h) = Cdc7/cyclinB1(h) (Homo sapiens, UniProt O00311); assay: Kinase Profiler; format: biochemical
Experimental: as §1

CK1γ2(h) = CK1γ2(h) (Homo sapiens, UniProt P78368); assay: Kinase Profiler; format: biochemical
Experimental: as §2

CSK(h) = CSK(h) (Homo sapiens, UniProt P41240); assay: Kinase Profiler; format: biochemical
Experimental: as §1

DYRK1A(h) = DYRK1A(h) (Homo sapiens, UniProt Q13627); assay: Kinase Profiler; format: biochemical
Experimental: as §2

EphB3(h) = EphB3(h) (Homo sapiens, UniProt P54753); assay: Kinase Profiler; format: biochemical
Experimental: as §2

EphB4(h) = EphB4(h) (Homo sapiens, UniProt P54760); assay: Kinase Profiler; format: biochemical
Experimental: as §2

IKKβ(h) = IKKβ(h) (Homo sapiens, UniProt O14920); assay: Kinase Profiler; format: biochemical
Experimental: as §2

JAK3(h) = JAK3(h) (Homo sapiens, UniProt P52333); assay: Kinase Profiler; format: biochemical
Experimental: as §1

KDR(h) = KDR(h) (Homo sapiens, UniProt P35968); assay: Kinase Profiler; format: biochemical
Experimental: as §1

LKB1(h) = LKB1(h) (Homo sapiens, UniProt Q15831); assay: Kinase Profiler; format: biochemical
Experimental: as §1

Met(Y1248D)(h) = Met(Y1248D)(h) (Homo sapiens, UniProt P08581, Y1230D); assay: Kinase Profiler; format: biochemical
Experimental: as §1

MLK1(h) = MLK1(h) (Homo sapiens, UniProt P80192); assay: Kinase Profiler; format: biochemical
Experimental: as §2

NIM1(h) = NIM1(h) (Homo sapiens, UniProt Q8IY84); assay: Kinase Profiler; format: biochemical
Experimental: as §1

PAK4(h) = PAK4(h) (Homo sapiens, UniProt O96013); assay: Kinase Profiler; format: biochemical
Experimental: as §2

PAK6(h) = PAK6(h) (Homo sapiens, UniProt Q9NQU5); assay: Kinase Profiler; format: biochemical
Experimental: as §1

PRK1(h) = PRK1(h) (Homo sapiens, UniProt Q16512); assay: Kinase Profiler; format: biochemical
Experimental: as §2

SGK2(h) = SGK2(h) (Homo sapiens, UniProt Q9HBY8); assay: Kinase Profiler; format: biochemical
Experimental: as §1

SRPK1(h) = SRPK1(h) (Homo sapiens, UniProt Q96SB4); assay: Kinase Profiler; format: biochemical
Experimental: as §1

Chain of Cdc7/cyclinB1(h) (O00311 whole entry): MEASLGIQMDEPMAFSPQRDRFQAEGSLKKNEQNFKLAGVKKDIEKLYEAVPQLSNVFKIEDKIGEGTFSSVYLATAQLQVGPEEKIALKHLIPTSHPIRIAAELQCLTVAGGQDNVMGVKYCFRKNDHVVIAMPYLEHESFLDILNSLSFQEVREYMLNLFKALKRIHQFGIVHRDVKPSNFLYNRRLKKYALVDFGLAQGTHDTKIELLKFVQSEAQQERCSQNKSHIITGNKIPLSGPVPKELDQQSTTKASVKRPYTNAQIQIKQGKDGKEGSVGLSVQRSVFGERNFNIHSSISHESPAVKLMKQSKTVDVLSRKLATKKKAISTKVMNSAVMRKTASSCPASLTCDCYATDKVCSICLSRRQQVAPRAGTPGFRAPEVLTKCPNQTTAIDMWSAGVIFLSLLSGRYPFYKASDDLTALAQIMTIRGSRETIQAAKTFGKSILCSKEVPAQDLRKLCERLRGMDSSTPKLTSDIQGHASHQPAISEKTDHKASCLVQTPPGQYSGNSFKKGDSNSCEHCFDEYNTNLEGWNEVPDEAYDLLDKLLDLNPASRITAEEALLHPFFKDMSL
Chain of PRK1(h) (Q16512 whole entry): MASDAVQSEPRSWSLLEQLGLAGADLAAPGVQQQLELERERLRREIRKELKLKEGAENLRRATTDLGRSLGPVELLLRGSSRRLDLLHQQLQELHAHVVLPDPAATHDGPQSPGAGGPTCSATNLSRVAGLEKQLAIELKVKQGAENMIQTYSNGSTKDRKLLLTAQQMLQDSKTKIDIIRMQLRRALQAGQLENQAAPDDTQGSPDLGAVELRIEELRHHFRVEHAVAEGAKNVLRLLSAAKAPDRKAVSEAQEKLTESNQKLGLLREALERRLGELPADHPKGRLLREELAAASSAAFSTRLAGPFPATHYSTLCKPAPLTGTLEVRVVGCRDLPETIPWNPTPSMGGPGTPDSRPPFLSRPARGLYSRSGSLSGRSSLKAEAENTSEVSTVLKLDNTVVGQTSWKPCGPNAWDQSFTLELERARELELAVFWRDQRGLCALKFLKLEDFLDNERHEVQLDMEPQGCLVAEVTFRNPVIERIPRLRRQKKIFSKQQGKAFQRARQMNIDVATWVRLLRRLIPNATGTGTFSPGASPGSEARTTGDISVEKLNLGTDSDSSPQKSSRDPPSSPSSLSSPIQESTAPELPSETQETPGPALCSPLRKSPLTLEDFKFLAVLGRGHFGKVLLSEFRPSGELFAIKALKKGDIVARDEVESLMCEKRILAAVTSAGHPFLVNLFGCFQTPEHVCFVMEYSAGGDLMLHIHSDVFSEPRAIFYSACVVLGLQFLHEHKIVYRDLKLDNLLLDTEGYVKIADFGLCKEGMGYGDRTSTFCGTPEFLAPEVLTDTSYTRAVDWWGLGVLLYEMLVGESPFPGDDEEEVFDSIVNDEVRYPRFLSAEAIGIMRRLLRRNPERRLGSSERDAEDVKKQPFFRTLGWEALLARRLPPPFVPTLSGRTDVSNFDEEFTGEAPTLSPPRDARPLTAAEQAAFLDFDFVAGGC
Chain of KDR(h) (P35968 20-1356): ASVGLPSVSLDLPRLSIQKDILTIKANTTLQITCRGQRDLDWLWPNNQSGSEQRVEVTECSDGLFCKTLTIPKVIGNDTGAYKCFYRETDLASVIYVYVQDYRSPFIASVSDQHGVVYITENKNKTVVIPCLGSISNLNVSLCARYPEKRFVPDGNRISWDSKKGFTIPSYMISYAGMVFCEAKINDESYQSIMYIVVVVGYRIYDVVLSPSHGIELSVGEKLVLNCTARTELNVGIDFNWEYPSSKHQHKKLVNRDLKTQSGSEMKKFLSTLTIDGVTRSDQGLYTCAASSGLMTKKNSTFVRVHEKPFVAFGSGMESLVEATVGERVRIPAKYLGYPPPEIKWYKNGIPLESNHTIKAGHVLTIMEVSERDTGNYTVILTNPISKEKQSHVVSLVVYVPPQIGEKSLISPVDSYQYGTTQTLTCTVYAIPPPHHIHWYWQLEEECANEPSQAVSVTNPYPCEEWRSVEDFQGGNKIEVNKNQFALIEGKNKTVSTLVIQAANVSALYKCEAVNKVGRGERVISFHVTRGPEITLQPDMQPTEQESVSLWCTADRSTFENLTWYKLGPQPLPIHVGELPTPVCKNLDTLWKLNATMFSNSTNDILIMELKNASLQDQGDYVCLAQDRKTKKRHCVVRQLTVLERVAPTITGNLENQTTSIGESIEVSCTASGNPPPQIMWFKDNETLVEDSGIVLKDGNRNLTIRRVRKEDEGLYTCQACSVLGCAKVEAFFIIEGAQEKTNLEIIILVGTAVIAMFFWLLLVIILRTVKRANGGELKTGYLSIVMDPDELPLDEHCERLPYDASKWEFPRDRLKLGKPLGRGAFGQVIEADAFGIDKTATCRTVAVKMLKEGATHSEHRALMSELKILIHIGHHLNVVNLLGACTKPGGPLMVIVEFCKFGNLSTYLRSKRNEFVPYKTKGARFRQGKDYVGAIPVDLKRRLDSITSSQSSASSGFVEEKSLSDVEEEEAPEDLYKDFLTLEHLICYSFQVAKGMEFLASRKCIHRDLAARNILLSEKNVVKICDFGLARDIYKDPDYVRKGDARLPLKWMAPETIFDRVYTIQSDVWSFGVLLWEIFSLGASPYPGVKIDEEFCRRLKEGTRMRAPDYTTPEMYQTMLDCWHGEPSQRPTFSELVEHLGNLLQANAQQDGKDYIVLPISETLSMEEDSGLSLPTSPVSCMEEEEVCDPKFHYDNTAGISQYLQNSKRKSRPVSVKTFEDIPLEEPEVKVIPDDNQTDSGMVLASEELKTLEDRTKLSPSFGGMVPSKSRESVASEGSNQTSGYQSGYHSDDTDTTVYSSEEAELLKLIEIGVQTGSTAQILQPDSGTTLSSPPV
Chain of CSK(h) (P41240 whole entry): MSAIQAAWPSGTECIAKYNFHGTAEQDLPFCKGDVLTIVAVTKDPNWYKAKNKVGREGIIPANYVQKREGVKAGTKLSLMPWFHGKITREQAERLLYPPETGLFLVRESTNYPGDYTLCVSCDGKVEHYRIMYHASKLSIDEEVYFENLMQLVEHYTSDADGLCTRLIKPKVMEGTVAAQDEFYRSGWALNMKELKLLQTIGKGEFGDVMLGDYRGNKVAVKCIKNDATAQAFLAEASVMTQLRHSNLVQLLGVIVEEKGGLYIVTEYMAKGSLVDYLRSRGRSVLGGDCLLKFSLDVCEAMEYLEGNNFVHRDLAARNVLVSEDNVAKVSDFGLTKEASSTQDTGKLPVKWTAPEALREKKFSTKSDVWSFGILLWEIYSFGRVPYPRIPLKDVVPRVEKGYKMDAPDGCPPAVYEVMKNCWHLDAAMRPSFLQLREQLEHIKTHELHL
Chain of IKKβ(h) (O14920 whole entry): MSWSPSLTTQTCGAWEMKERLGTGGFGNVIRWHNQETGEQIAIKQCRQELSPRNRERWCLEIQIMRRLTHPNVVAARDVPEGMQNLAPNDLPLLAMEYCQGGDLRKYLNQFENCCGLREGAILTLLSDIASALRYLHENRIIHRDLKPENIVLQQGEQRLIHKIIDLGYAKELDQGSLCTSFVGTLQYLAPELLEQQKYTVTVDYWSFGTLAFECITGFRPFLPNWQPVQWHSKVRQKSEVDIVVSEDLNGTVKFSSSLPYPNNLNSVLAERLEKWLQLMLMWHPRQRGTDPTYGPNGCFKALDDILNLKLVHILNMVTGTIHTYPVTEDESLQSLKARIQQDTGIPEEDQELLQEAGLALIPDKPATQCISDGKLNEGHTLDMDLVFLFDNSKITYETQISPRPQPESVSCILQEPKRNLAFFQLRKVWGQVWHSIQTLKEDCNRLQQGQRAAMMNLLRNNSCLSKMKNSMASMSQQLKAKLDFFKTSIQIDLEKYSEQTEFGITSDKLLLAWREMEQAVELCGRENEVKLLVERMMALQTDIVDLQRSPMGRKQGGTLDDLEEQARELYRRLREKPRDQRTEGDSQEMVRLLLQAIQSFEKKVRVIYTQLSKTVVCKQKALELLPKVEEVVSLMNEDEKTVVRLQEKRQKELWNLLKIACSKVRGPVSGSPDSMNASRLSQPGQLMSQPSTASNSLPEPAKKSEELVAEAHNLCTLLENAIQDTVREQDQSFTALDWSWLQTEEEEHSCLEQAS
Chain of SGK2(h) (Q9HBY8 whole entry): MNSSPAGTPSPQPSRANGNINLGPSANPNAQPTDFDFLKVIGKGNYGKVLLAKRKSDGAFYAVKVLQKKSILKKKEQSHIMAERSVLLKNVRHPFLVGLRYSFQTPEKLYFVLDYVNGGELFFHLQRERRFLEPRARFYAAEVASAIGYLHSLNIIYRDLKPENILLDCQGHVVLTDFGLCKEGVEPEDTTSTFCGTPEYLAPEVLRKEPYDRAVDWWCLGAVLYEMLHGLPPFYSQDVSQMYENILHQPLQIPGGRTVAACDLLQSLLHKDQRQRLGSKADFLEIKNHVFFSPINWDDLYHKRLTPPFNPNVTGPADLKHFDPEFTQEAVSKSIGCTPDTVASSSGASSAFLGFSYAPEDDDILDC
Chain of CK1γ2(h) (P78368 whole entry): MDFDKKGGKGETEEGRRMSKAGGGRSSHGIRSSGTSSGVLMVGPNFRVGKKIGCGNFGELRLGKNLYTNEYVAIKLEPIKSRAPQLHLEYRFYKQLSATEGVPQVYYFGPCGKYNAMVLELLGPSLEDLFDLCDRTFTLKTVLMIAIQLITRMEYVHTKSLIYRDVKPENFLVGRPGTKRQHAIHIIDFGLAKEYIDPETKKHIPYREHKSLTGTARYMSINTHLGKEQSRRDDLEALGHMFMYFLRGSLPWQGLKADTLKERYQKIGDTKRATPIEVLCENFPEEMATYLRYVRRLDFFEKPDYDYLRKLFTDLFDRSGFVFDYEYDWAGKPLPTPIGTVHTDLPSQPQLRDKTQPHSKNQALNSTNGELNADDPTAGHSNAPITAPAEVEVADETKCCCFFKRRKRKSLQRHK

## COc1ccc(OC)c(NS(=O)(=O)c2ccc(NC(=O)CCSc3ccc(C)cc3)cc2)c1 [Compound A41]
TA98; - S9, 1.0E-04 M
  %Effect, single replicates (1st, 2nd, 3rd): 154.6% and 177.5% and 143.7%
  Cytotoxicity (% of control), Mean %Effect: 158.6%
TA98; - S9, 1.0E-05 M
  %Effect, single replicates (1st, 2nd, 3rd): 82.4% and 76.9% and 77.8%
  Cytotoxicity (% of control), Mean %Effect: 79.0%
TA98; - S9, 1.2E-06 M
  %Effect, single replicates (1st, 2nd, 3rd): 89.7% and 74.1% and 55.8%
  Cytotoxicity (% of control), Mean %Effect: 73.2%
TA98; - S9, 2.5E-05 M
  %Effect, single replicates (1st, 2nd, 3rd): 95.2% and 92.4% and 83.3%
  Cytotoxicity (% of control), Mean %Effect: 90.3%
TA98; - S9, 2.5E-06 M
  %Effect, single replicates (1st, 2nd, 3rd): 80.5% and 83.3% and 82.4%
  Cytotoxicity (% of control), Mean %Effect: 82.0%
TA98; - S9, 5.0E-05 M
  %Effect, single replicates (1st, 2nd, 3rd): 88.8% and 83.3% and 75.9%
  Cytotoxicity (% of control), Mean %Effect: 82.7%
TA98; - S9, 5.0E-06 M
  %Effect, single replicates (1st, 2nd, 3rd): 88.8% and 84.2% and 81.4%
  Cytotoxicity (% of control), Mean %Effect: 84.8%
TA98; - S9, 6.0E-07 M
  %Effect, single replicates (1st, 2nd, 3rd): 92.4% and 82.4% (2×)
  Cytotoxicity (% of control), Mean %Effect: 85.7%
[1]; 1.0E-04 M
  Count Positive (# of wells): 1
[1]; 1.0E-05 M
  Count Positive (# of wells): 2
[1]; 5.0E-05 M
  Count Positive (# of wells): 0
[1]; 5.0E-06 M
  Count Positive (# of wells): 0
Adenosine A1
  % inh.: 2%
Androgen (Testosterone)
  % inh.: 10%
Estrogen ERα
  % inh.: 10%
[2]
  % inh.: -3%
Abl(Y253F)(h)
  Activity(%): 102%
Cdc7/cyclinB1(h)
  Activity(%): 92%
CK1γ2(h)
  Activity(%): 112%
CSK(h)
  Activity(%): 119%
DYRK1A(h)
  Activity(%): 93%
EphB3(h)
  Activity(%): 113%
EphB4(h)
  Activity(%): 112%
IKKβ(h)
  Activity(%): 110%
JAK3(h)
  Activity(%): 106%
KDR(h)
  Activity(%): 113%
LKB1(h)
  Activity(%): 107%
Met(Y1248D)(h)
  Activity(%): 118%
MLK1(h)
  Activity(%): 102%
NIM1(h)
  Activity(%): 105%
PAK4(h)
  Activity(%): 106%
PAK6(h)
  Activity(%): 99%
PRK1(h)
  Activity(%): 93%
SGK2(h)
  Activity(%): 117%
SRPK1(h)
  Activity(%): 114%
